Assay results reported in publication PMC7997635 (Journal of medicinal chemistry, 2021).
≈ marks a conversion by molar mass, not a printed value.

How the values were obtained:
[1] = test system: P. falciparum NF54-luc; experiment: Bioluminescence relative rate of kill; format: cell-based, Plasmodium falciparum; conditions: 6 h exposure, 30× to […] EC50, compared with benchmarks
[2] = Solubility in NP-40/DMSO buffer of the heme biomineralization assay; format: physicochemical
[3] = test system: conversion of hematin (Fe(III)PPIX) to β-hematin; format: biochemical; conditions: pH 4.8 acetate, NP-40, 37 °C, 5 h; for IC50: read-out: IC50 for inhibition of βH formation
[4] = test system: P. falciparum; conditions: previously characterized with the standard PRR assay ref 34; cited from earlier work
[5] = test system: Hz formation in NF54 parasites; experiment: Cellular heme fractionation assay; format: cell-based; conditions: Plasmodium falciparum, NF54, 32 h, read-out: EC50 (heme), drug concentration giving 50% response of 'free' heme Fe
[6] = test system: PfNF54 parasites; experiment: Parasite survival concentration response; format: cell-based; conditions: Plasmodium falciparum, read-out: EC50 (survival), parasite survival
[7] = test system: P. falciparum 3D7; experiment: SYBR Green parasite growth inhibition assay, 72 h; format: cell-based; conditions: Plasmodium falciparum, 3D7, 72 h, read-out: P. falciparum EC50 Pf3D7, 72 h SYBR Green assay, ABS parasites; mean ± std dev (n) or individual replicates
[8] = Kinetic solubility in pH 2.0 and pH 6.5 buffers; format: physicochemical
[9] = test system: P. berghei liver stage (Pb-Luc sporozoites in HepG2-A16-CD81EGFP cells); experiment: P. berghei liver stage assay; format: cell-based, Plasmodium berghei; conditions: for EC50: read-out: Pb liver stage EC50, two independent replicates
[10] = HepG2tox assay run with the liver stage assay; format: cell-based, human; conditions: human, HepG2 cells, HepG2 CC50 (life cycle profiling), two independent replicates
[11] = test system: HepG2; experiment: HepG2tox assay run with the liver stage assay; format: cell-based, human; conditions: read-out: HepG2 CC50 (life cycle profiling); two independent replicates
[12] = HepG2 in vitro cytotoxicity; format: cell-based; conditions: human, HepG2 cells
[13] = test system: P. falciparum 3D7; experiment: Two-color flow cytometry kill rate assay; format: cell-based, Plasmodium falciparum; conditions: 10× EC50, 24 or 48 h
[14] = test system: P. falciparum; experiment: PRR drug washout kill rate assay; format: cell-based, Plasmodium falciparum; conditions: 10× EC50, 24 or 48 h
[15] = test system: P. falciparum Dd2; experiment: SYBR Green parasite growth inhibition assay, 72 h; format: cell-based, Plasmodium falciparum
[16] = test system: male stage V gametocytes; experiment: Dual gamete formation assay; format: cell-based; conditions: Plasmodium falciparum, read-out: DGFA male gametocytes inhibition
[17] = test system: P. falciparum 3D7; experiment: 48 h 3H-hypoxanthine incorporation assay; format: cell-based; conditions: Plasmodium falciparum, 3D7, 48 h, read-out: EC50, 48 h hypoxanthine assay
[18] = phosphate buffered saline pH 6.5, pH 6.5

For `COc1ccc(Br)cc1CN(C)C(c1ccccc1)c1nnnn1-c1ccccc1C` (racemic) [Compound 3, N-(5-bromo-2-methoxybenzyl)-N-methyl-1-phenyl-1-(1-(o-tolyl)-1H-tetrazol-5-yl)methenamine], the “rate of kill profile in BRRoK assay” value [1] was “fast kill mechanism”, the solubility [2] was no less than 2000 µM and the “inhibition of βH formation (in words)” value [3] was “nearly inactive”.

Work on `O[C@@H](c1cc(C(F)(F)F)nc2c(C(F)(F)F)cccc12)[C@H]1CCCCN1` (racemic) [MFQ, mefloquine, reference compound] yielded an IC50 [3] of no more than 100 µM.

For `C[C@@H]1CC[C@H]2[C@@H](C)C(=O)O[C@@H]3O[C@@]4(C)CC[C@@H]1[C@]32OO4` [ART, artemisinin], the “rate of kill class of benchmark compound” value [4] is listed as “fast-kill”.

In the case of `O=C1C(O)=C([C@H]2CC[C@H](c3ccc(Cl)cc3)CC2)C(=O)c2ccccc21` [ATQ, atovaquone], the “rate of kill class of benchmark compound” value [4] is listed as “slow-kill”.

For `CCN(CC)CCCC(C)Nc1ccnc2cc(Cl)ccc12` (stereo not drawn) [CQ, chloroquine], the EC50 [5] is given as 0.058 µM, the EC50 [6] is given as 0.015 µM and the “rate of kill class of benchmark compound” value [4] is given as “fast-kill”.

For `CCC(C(=O)Nc1cccc(Cl)c1)N1C(=O)C(C)N=C(c2ccccc2)c2ccccc21` (stereo not drawn) [Compound 1, N-(3-Chlorophenyl)-2-(3-methyl-2-oxo-5-phenyl-2,3-dihydro-1H-benzo[e][1,4]diazepin-1-yl)butanamide], the “rate of kill profile in BRRoK assay” value [1] was “slow kill kinetics”.

For `CC(=O)c1ccc(NC(=O)c2ccc(NC(=O)C3COc4ccccc4O3)cc2)cc1` (stereo not drawn) [Compound 2, N-(4-((4-Acetylphenyl)carbamoyl)phenyl)-2,3-dihydrobenzo[b][1,4]dioxine-2-carboxamide], the “rate of kill profile in BRRoK assay” value [1] was “slow kill kinetics”.

Molecule `COc1ccc(C(F)(F)F)cc1CN(C)C(c1cccnc1)c1nnnn1-c1ccccc1C` (stereo not drawn) [Compound 6, N-(2-methoxy-5-(trifluoromethyl)benzyl)-N-methyl-1-(pyridin-3-yl)-1-(1-(o-tolyl)-1H-tetrazol-5-yl)methenamine] has an EC50 [7] of roughly 1 µM.

Work on `COc1ccc(C(F)(F)F)cc1CN(C1CC1)C(c1cccnc1)c1nnnn1-c1ccccc1C` (stereo not drawn) [Compound 7, N-(2-methoxy-5-(trifluoromethyl)benzyl)-N-(pyridin-3-yl(1-(o-tolyl)-1H-tetrazol-5-yl)methyl)cyclopropanamine] yielded a solubility kinetic ([8]; pH 2.0 buffer, pH 2) of 12.5 to 25 µg/mL (≈ 25.3 to 50.6 µM) and a solubility kinetic [8, 18] of 1.6 to 3.1 µg/mL (≈ 3.24 to 6.27 µM).

For `Cc1ccccc1-n1nnnc1C(c1cccnc1)N(Cc1cccc(C(F)(F)F)c1)C1CC1` (stereo not drawn) [Compound 9, N-(Pyridin-3-yl(1-(o-tolyl)-1H-tetrazol-5-yl)methyl)-N-(3-(trifluoromethyl)benzyl) cyclopropanamine], the solubility kinetic ([8]; pH 2.0 buffer, pH 2) was 12 to 23 µg/mL (≈ 25.8 to 49.5 µM), the solubility kinetic [8, 18] was 1.5 to 2.9 µg/mL (≈ 3.23 to 6.24 µM) and the solubility [2] was no less than 2000 µM. The EC50 [9] was 12 µM, the CC50 [10] was 19 µM and the CC50 [11] was greater than 17 µM. The “inhibition of βH formation (in words)” value [3] was “inhibited βH formation with the same potency as MFQ”.

For `Cc1ccccc1-n1nnnc1C(c1cncnc1)N(Cc1cccc(C(F)(F)F)c1)C1CC1` (stereo not drawn) [Compound 10, N-(Pyrimidin-5-yl(1-(o-tolyl)-1H-tetrazol-5-yl)methyl)-N-(3-(trifluoromethyl)benzyl)cyclopropanamine], the EC50 [7] was 0.32 µM, the CC50 at 72 h [12] was greater than 30 µM and the “rate of kill profile in BRRoK assay” value [1] was “fast kill kinetics”. For the same molecule, the “kill kinetics in two-color FACS assay” value [13] was “kill kinetics similar to CQ, though slower than ART”, the “kill kinetics in PRR washout assay” value [14] was “kill kinetics similar to CQ, though slower than ART” and the solubility kinetic ([8]; pH 2.0 buffer, pH 2) was 1.5 to 2.9 µg/mL (≈ 3.22 to 6.23 µM). The solubility kinetic [8, 18] was 1.5 to 2.9 µg/mL (≈ 3.22 to 6.23 µM), the solubility [2] was no less than 2000 µM and the “inhibition of βH formation (in words)” value [3] was “weaker inhibition”. For the same molecule, the EC50 [5] was 1.04 µM.

Work on `CCCN(C(c1cncnc1)c1nnnn1-c1ccccc1C)C1(c2cccc(C(F)(F)F)c2)CC1` (stereo not drawn) [Compound 20, N-Propyl-N-(pyrimidin-5-yl(1-(o-tolyl)-1H-tetrazol-5-yl)methyl)-1-(3-(trifluoromethyl)phenyl)cyclopropan-1-amine] yielded a selectivity ratio at 72 h [12] of 40 to 50.

Work on `CCCN(C(c1cccnc1)c1nnnn1-c1ccccc1C)C1(c2cccc(C(F)(F)F)c2)CC1` (stereo not drawn) [Compound 21, N-Propyl-N-(pyridin-3-yl(1-(o-tolyl)-1H-tetrazol-5-yl)methyl)-1-(3-(trifluoromethyl)phenyl)cyclopropan-1-amine] yielded an EC50 [7] of roughly 0.3 µM and a selectivity ratio at 72 h [12] of 40 to 50.

Molecule `Cc1ccccc1N(C)C(=O)C(c1cccnc1)N(Cc1cccc(C(F)(F)F)c1)C1CC1` (stereo not drawn) [Compound 22, 2-(Cyclopropyl(3-(trifluoromethyl)benzyl)amino)-N-methyl-2-(pyridin-3-yl)-N-(o-tolyl)acetamide] has a solubility kinetic [8, 18] of 6.3 to 12.5 µg/mL (≈ 13.9 to 27.6 µM).

In the case of `Cc1ccccc1N(C)C(=O)C(c1cncnc1)N(Cc1cccc(C(F)(F)F)c1)C1CC1` (stereo not drawn) [Compound 23, 2-(Cyclopropyl(3-(trifluoromethyl)benzyl)amino)-N-methyl-2-(pyrimidin-5-yl)-N-(o-tolyl)acetamide], the “rate of kill profile in BRRoK assay” value [1] is reported as “fast kill kinetics” and the solubility kinetic ([8]; pH 2.0 buffer, pH 2) is reported as 11 to 23 µg/mL (≈ 24.2 to 50.6 µM).

With `Cc1ccccc1N(C)C(=O)C(c1cccnc1)N(Cc1cccc(OC(F)(F)F)c1)C1CC1` (stereo not drawn) [Compound 26, 2-(Cyclopropyl(3-(trifluoromethoxy)benzyl)amino)-N-methyl-2-(pyridin-3-yl)-N-(o-tolyl)acetamide] the “Fold Diff in EC50, Dd2 relative to 3D7” value [15] was 3–5 fold.

For `Cc1ccccc1N(C)C(=O)C(c1cncnc1)N(Cc1cccc(OC(F)(F)F)c1)C1CC1` (stereo not drawn) [Compound 27, 2-(Cyclopropyl(3-(trifluoromethoxy)benzyl)amino)-N-methyl-2-(pyrimidin-5-yl)-N-(o-tolyl)acetamide], the “Fold Diff in EC50, Dd2 relative to 3D7” value [15] was 1.4 – 3.0 fold.

With `Cc1ccccc1N(C)C(=O)C(c1cccnc1)N(Cc1cc(C(F)(F)F)ccc1F)C1CC1` (stereo not drawn) [Compound 32, 2-(Cyclopropyl(2-fluoro-5-(trifluoromethyl)benzyl)amino)-N-methyl-2-(pyridin-3-yl)-N-(o-tolyl)acetamide] the solubility kinetic [8, 18] was 1.5 to 2.9 µg/mL (≈ 3.18 to 6.15 µM), the “Pb liver stage EC50 relative to P. falciparum blood stage EC50” value ([9]; fold higher) was 20 to 30 fold and the EC50 [9] was 16 µM. The CC50 [10] was 24 µM and the inhibition at 25 µM [16] was roughly 60%.

For `O=C(C(c1cccnc1)N(Cc1cccc(C(F)(F)F)c1)C1CC1)N1CCCCC1` (stereo not drawn) [Compound 34, 2-(Cyclopropyl(3-(trifluoromethyl)benzyl)amino)-1-(piperidin-1-yl)-2-(pyridin-3-yl)ethan-1-one], the solubility kinetic [8, 18] was 25 to 50 µg/mL (≈ 59.9 to 120 µM).

For `Cc1cc(Nc2ccc(S(F)(F)(F)(F)F)cc2)n2nc(C(C)(F)F)nc2n1` [DSM265], the “rate of kill class of benchmark compound” value [4] is listed as “slow-kill”.

Molecule `CCc1nc(N)nc(N)c1-c1ccc(Cl)cc1` [PYR, pyrimethamine] has an EC50 [17] of 0.094 µM, an EC50 [5] greater than 0.1 µM and an EC50 [6] of 0.033 µM.

In the case of `CCN(CC)Cc1cc(Nc2ccnc3cc(Cl)ccc23)ccc1O` [amodiaquine, reference compound], the IC50 [3] is reported as no more than 100 µM.

With `COc1ccc2nc3cc(Cl)ccc3c(Nc3cc(CN4CCCC4)c(O)c(CN4CCCC4)c3)c2n1` [pyronaridine, reference compound] the IC50 [3] was no more than 100 µM.
